# Measured values as given in EP4813989A1, “CRYSTAL, PHARMACEUTICAL COMPOSITION, PREPARATION METHOD THEREFOR, AND USE THEREOF” (TYK Medicines, Inc., priority 2023, dated 2025).
# What was measured:
# Type in all cases: physicochemical
# [1] = High-humidity test, related substances by HPLC; conditions: 90%RH±5%RH; for Impurity content RRT0.55 / Impurity content RRT0.66 / Impurity content RRT0.71 / Impurity content RRT0.94 / Impurity content RRT1.02 / Impurity content RRT1.06 / Impurity content RRT1.08 / Impurity content RRT1.15 / Total impurities: open
# From the text: An investigation method for the high-humidity test can be seen in Table 12 below.
# Results of related substances in each crystal form under the high-humidity condition (90%RH±5%RH) can be seen in Table 16.
# HPLC detection results of related substances under the high-humidity condition can be seen as follows: Table 16
# [2] = Light exposure test, related substances by HPLC; conditions: for Impurity content RRT0.55 / Impurity content RRT0.66 / Impurity content RRT0.71 / Impurity content RRT0.94 / Impurity content RRT1.02 / Impurity content RRT1.06 / Impurity content RRT1.08 / Impurity content RRT1.15 / Total impurities: 4500lx±500lx, open
# From the text: An investigation method for the light exposure test can be seen in Table 13 below.
# Results of related substances in each crystal form under the light exposure condition (4500lx±500lx) can be seen in Table 17.
# HPLC detection results of related substances under the light exposure condition can be seen as follows: Table 17
# [3] = Accelerated test, related substances by HPLC; conditions: 40°C±2°C, 75%RH±5%RH; for Impurity content RRT0.55 / Impurity content RRT0.66 / Impurity content RRT0.71 / Impurity content RRT0.94 / Impurity content RRT1.02 / Impurity content RRT1.06 / Impurity content RRT1.08 / Impurity content RRT1.15 / Total impurities: open
# Procedure: An investigation method for the accelerated test can be seen in Table 14 below.
# Change results of related substances in each crystal form under the accelerated condition (40°C±2°C, 75%RH±5%RH) can be seen in Table 18.
# HPLC detection results of related substances under the accelerated condition can be seen as follows: Table 18
# [4] = Flowability test (angle of repose)
# Procedure: A flowability determination method was as follows: an angle of repose was determined by using a device composed of 2 to 3 funnels connected in series in a staggered manner, and drug powder was slowly and uniformly passed through the funnels onto a stationary base with a diameter d, so as to form a symmetric powder pile with a single layer of powder at the bottom. During the formation of the powder pile, a height of the funnels was maintained within 2-4 cm from a top of the powder pile, a height h of the cone was determined, and the angle of repose was calculated as tanθ=h/(d/2).
# [5] = Dynamic vapor sorption (DVS) hygroscopicity
# Procedure: Dynamic vapor sorption (DVS) was used to investigate hygroscopicities of an active pharmaceutical ingredient in different crystal forms.
# Determination method: • instrument: dynamic vapor sorption analyzer; temperature: 25°C; protective gas and flow rate: N2, 200 mL/min; • dm/dt: 0.002%/min; RH range: 0%RH-100%RH; cycle: 1 full cycle.
structure (smiles),measurement,setting,value
C[C@@H](Nc1ccn2ncc(C3=NOC(C)(C)N3)c2n1)c1cc(F)cc(F)c1F [crystal form A],Increase of impurity RRT1.02 content,[1]; 32 days,no essential changes
same,Increase of impurity RRT1.08 content,[1]; 32 days,no essential change
same,Increase of total impurities,[1]; 32 days,0.03%
same,Impurity content RRT0.55,[1]; 0 day,0.03%
same,Impurity content RRT0.66,[1]; 0 day,0.18%
same,Impurity content RRT0.71,[1]; 0 day,0.15%
same,Impurity content RRT0.94,[1]; 0 day,0.04%
same,Impurity content RRT1.02,[1]; 0 day,0.28%
same,Impurity content RRT1.06,[1]; 0 day,0.07%
same,Impurity content RRT1.08,[1]; 0 day,0.16%
same,Impurity content RRT1.15,[1]; 0 day,0.03%
same,Total impurities,[1]; 0 day,0.95%
same,Impurity content RRT0.55,[1]; 5 days,0.03%
same,Impurity content RRT0.66,[1]; 5 days,0.20%
same,Impurity content RRT0.71,[1]; 5 days,0.16%
same,Impurity content RRT0.94,[1]; 5 days,0.03%
same,Impurity content RRT1.02,[1]; 5 days,0.31%
same,Impurity content RRT1.06,[1]; 5 days,0.09%
same,Impurity content RRT1.08,[1]; 5 days,0.21%
same,Impurity content RRT1.15,[1]; 5 days,0.04%
same,Total impurities,[1]; 5 days,1.07%
same,Impurity content RRT0.55,[1]; 11 days,0.03%
same,Impurity content RRT0.66,[1]; 11 days,0.20%
same,Impurity content RRT0.71,[1]; 11 days,0.16%
same,Impurity content RRT0.94,[1]; 11 days,0.03%
same,Impurity content RRT1.02,[1]; 11 days,0.30%
same,Impurity content RRT1.06,[1]; 11 days,0.08%
same,Impurity content RRT1.08,[1]; 11 days,0.21%
same,Impurity content RRT1.15,[1]; 11 days,0.03%
same,Total impurities,[1]; 11 days,1.05%
same,Impurity content RRT0.55,[1]; 32 days,0.03%
same,Impurity content RRT0.66,[1]; 32 days,0.18%
same,Impurity content RRT0.71,[1]; 32 days,0.16%
same,Impurity content RRT0.94,[1]; 32 days,0.05%
same,Impurity content RRT1.02,[1]; 32 days,0.26%
same,Impurity content RRT1.06,[1]; 32 days,0.06%
same,Impurity content RRT1.08,[1]; 32 days,0.18%
same,Impurity content RRT1.15,[1]; 32 days,0.05%
same,Total impurities,[1]; 32 days,0.98%
same,Increase of impurity RRT0.66 content,"[2]; 4500 lx±500 lx, 32 days",0.09%
same,Increase of impurity RRT0.71 content,"[2]; 4500 lx±500 lx, 32 days",not increased
same,Increase of impurity RRT1.02 content,"[2]; 4500 lx±500 lx, 32 days",not increased
same,Increase of impurity RRT1.08 content,"[2]; 4500 lx±500 lx, 32 days",0.09%
same,Increase of total impurities,"[2]; 4500 lx±500 lx, 32 days",0.13%
same,Impurity content RRT0.55,[2]; 0 day,0.03%
same,Impurity content RRT0.66,[2]; 0 day,0.18%
same,Impurity content RRT0.71,[2]; 0 day,0.15%
same,Impurity content RRT0.94,[2]; 0 day,0.04%
same,Impurity content RRT1.02,[2]; 0 day,0.28%
same,Impurity content RRT1.06,[2]; 0 day,0.07%
same,Impurity content RRT1.08,[2]; 0 day,0.16%
same,Impurity content RRT1.15,[2]; 0 day,0.03%
same,Total impurities,[2]; 0 day,0.95%
same,Impurity content RRT0.55,[2]; 5 days,0.03%
same,Impurity content RRT0.66,[2]; 5 days,0.21%
same,Impurity content RRT0.71,[2]; 5 days,0.14%
same,Impurity content RRT0.94,[2]; 5 days,0.04%
same,Impurity content RRT1.02,[2]; 5 days,0.30%
same,Impurity content RRT1.06,[2]; 5 days,0.08%
same,Impurity content RRT1.08,[2]; 5 days,0.20%
same,Impurity content RRT1.15,[2]; 5 days,0.04%
same,Total impurities,[2]; 5 days,1.03%
same,Impurity content RRT0.55,[2]; 11 days,0.03%
same,Impurity content RRT0.66,[2]; 11 days,0.22%
same,Impurity content RRT0.71,[2]; 11 days,0.15%
same,Impurity content RRT0.94,[2]; 11 days,0.03%
same,Impurity content RRT1.02,[2]; 11 days,0.31%
same,Impurity content RRT1.06,[2]; 11 days,0.07%
same,Impurity content RRT1.08,[2]; 11 days,0.22%
same,Impurity content RRT1.15,[2]; 11 days,0.04%
same,Total impurities,[2]; 11 days,1.08%
same,Impurity content RRT0.55,[2]; 32 days,0.03%
same,Impurity content RRT0.66,[2]; 32 days,0.27%
same,Impurity content RRT0.71,[2]; 32 days,0.10%
same,Impurity content RRT0.94,[2]; 32 days,0.07%
same,Impurity content RRT1.02,[2]; 32 days,0.28%
same,Impurity content RRT1.06,[2]; 32 days,0.06%
same,Impurity content RRT1.08,[2]; 32 days,0.25%
same,Impurity content RRT1.15,[2]; 32 days,0.02%
same,Total impurities,[2]; 32 days,1.08%
same,Increase of impurity RRT1.08 content,[3]; 32 days,0.04%
same,Impurity content RRT0.55,[3]; 0 day,0.03%
same,Impurity content RRT0.66,[3]; 0 day,0.18%
same,Impurity content RRT0.71,[3]; 0 day,0.15%
same,Impurity content RRT0.94,[3]; 0 day,0.04%
same,Impurity content RRT1.02,[3]; 0 day,0.28%
same,Impurity content RRT1.06,[3]; 0 day,0.07%
same,Impurity content RRT1.08,[3]; 0 day,0.16%
same,Impurity content RRT1.15,[3]; 0 day,0.03%
same,Total impurities,[3]; 0 day,0.95%
same,Impurity content RRT0.55,[3]; 5 days,0.03%
same,Impurity content RRT0.66,[3]; 5 days,0.20%
same,Impurity content RRT0.71,[3]; 5 days,0.16%
same,Impurity content RRT0.94,[3]; 5 days,0.04%
same,Impurity content RRT1.02,[3]; 5 days,0.30%
same,Impurity content RRT1.06,[3]; 5 days,0.08%
same,Impurity content RRT1.08,[3]; 5 days,0.18%
same,Impurity content RRT1.15,[3]; 5 days,0.03%
same,Total impurities,[3]; 5 days,1.02%
same,Impurity content RRT0.55,[3]; 11 days,0.04%
same,Impurity content RRT0.66,[3]; 11 days,0.20%
same,Impurity content RRT0.71,[3]; 11 days,0.17%
same,Impurity content RRT0.94,[3]; 11 days,0.03%
same,Impurity content RRT1.02,[3]; 11 days,0.33%
same,Impurity content RRT1.06,[3]; 11 days,0.09%
same,Impurity content RRT1.08,[3]; 11 days,0.25%
same,Impurity content RRT1.15,[3]; 11 days,0.04%
same,Total impurities,[3]; 11 days,1.14%
same,Impurity content RRT0.55,[3]; 32 days,0.04%
same,Impurity content RRT0.66,[3]; 32 days,0.20%
same,Impurity content RRT0.71,[3]; 32 days,0.16%
same,Impurity content RRT0.94,[3]; 32 days,0.04%
same,Impurity content RRT1.02,[3]; 32 days,0.27%
same,Impurity content RRT1.06,[3]; 32 days,0.07%
same,Impurity content RRT1.08,[3]; 32 days,0.20%
same,Impurity content RRT1.15,[3]; 32 days,0.06%
same,Total impurities,[3]; 32 days,1.03%
same,angle of repose,[4],approximately 32.7 °
same,Hygroscopicity (conclusion),[5],did not have hygroscopicity under conventional conditions
same,DVS weight loss,"[5]; at 0% humidity, 25°C",3-4%
same,DVS hygroscopicity,[5]; humidity 90% or more,obvious hygroscopicity
same,DVS weight gain,[5]; humidity increased from 0% to 20%,significant weight gain
same,DVS hygroscopic weight gain,[5]; humidity increased from 20% to 80%,almost no hygroscopic weight gain
